The source of these data is article PMC2806030, “Inhibition of mammalian S6 kinase by resveratrol suppresses autophagy” (Aging (Albany NY), 2009).

The IC50 is the concentration that gives 50% inhibition.

The target of test [1] is T1, p70 S6 kinase (S6K1) (Rattus norvegicus, UniProt P67999).
T1 construct: gene Rps6kb1; HA-tagged S6K1 wt immunoprecipitated from HEK293 cells
Put plainly: in vitro […] kinase assay with immunoprecipitated HA-S6K1 and GST-S6 substrate; also KinaseProfiler screen at […]. It counts as biochemical.

The target of test [2] is T2, CDK5/p25(h) (Homo sapiens, UniProt Q00535).
T2 construct: p25
As to the kind of experiment: biochemical. Also noted: Upstate KinaseProfiler in vitro kinase activity assay, per cent of DMSO control. To be noted: read-out: Activity (% of Control). As to the method:
(§1) Kinase profile and kinase assay. A Kinase profile against 100 kinases listed for resveratrol at 20 μM was generated utilizing Upstate's KinaseProfiler™ service. Assay protocols for each kinase are available from Upstate (Lake Placid, NY). In vitro kinase assay was performed as described previously. Briefly, HEK293 cells were transfected with HA-S6K1 wt, HA-S6K1 K100R, or vector as indicated. Cells were treated with 1 μg/ml insulin for 10 minutes prior to harvesting in PBS + 0.5% NP-40 + protease and phosphatase inhibitors. 125 μg of lysate per sample was immunoprecipitated using 0.5 μg/sample of anti-HA High-Affinity (Roche, Basel Switzerland). Beads from immunoprecipitations were washed three times in lysis buffer and once in kinase buffer, and kinase assays were performed with recombinant GST-S6 as substrate (1 μg per assay). In the indicated lanes varying doses of resveratrol or DMSO control were added to the reaction prior to addition of the GST-S6 substrate. All samples were subjected to SDS-PAGE, and 32P incorporation was quantified by using a Bio-Rad (Hercules, CA) Phosphor-Imager and subsequent analysis with ImageJ (NIH).  Figure 4. Resveratrol inhibits S6K1 in vitro. (A) Structural similarity between resveratrol and quercetin, a known kinase inhibitor. (B) Kinase inhibition profile for resveratrol at 20 μM obtained using KinaseProfiler™ (Upstate). Dashed line represents 100% activity as compared to control. Black filled-in bar on the graph indicates S6K1. Complete data set is provided in Supplementary Table 1. Error bars represent s.d.m. (C) Phosphorylation of recombinant GST-tagged S6 by immunoprecipitated HA-S6K1 under increasing concentrations of resveratrol (Res). Autoradiograph depicts S6K1 phosphorylation of GST-S6. (D) Average of three separate kinase assay experiments as performed in (C). Densitometry was performed using NIH ImageJ. Error bars represent s.e.m. […] Therefore, we hypothesized that the effect of resveratrol on autophagy could be related to inhibition of one or more upstream kinases. To test this, we performed an in vitro kinase screen and determined an inhibition profile for resveratrol. […] With the exception of S6K1, these kinases play primary roles in the hematopoietic system, and were thus viewed as unlikely to have been responsible for the effect we were studying. […] On the other hand, S6K1 is known to play a requisite role in the regulation of autophagy in Drosophila, making it a promising candidate for the in vivo target of resveratrol that is responsible for inhibition of autophagy.

Test [3] has as its target NLK (Homo sapiens, UniProt Q9UBE8). Put plainly: biochemical. Details: Upstate KinaseProfiler in vitro kinase activity assay, per cent of DMSO control. The note with it: read-out: Activity (% of Control). As to the method:
as §1

The target of test [4] is T3, PDGFRα(h) (Homo sapiens, UniProt P16234).
T3 construct: gene PDGFRA
Put plainly: biochemical. Also noted: Upstate KinaseProfiler in vitro kinase activity assay, per cent of DMSO control. To be noted: read-out: Activity (% of Control). As for the experimental part: as §1

The target in test [5] is T4, PKA(h) (Homo sapiens, UniProt P17612).
T4 construct: gene PRKACA
Put plainly: biochemical. The note with it: read-out: Activity (% of Control). Details: Upstate KinaseProfiler in vitro kinase activity assay, per cent of DMSO control. As for the experimental part:
as §1

Test [6] deals with T5, IKKß(h) (Homo sapiens, UniProt O14920).
T5 construct: gene IKBKB
As to the kind of experiment: biochemical. The note with it: read-out: Activity (% of Control). Details: Upstate KinaseProfiler in vitro kinase activity assay, per cent of DMSO control. As to the method:
as §1

Test [7] concerns the target T6, PKCζ(h) (Homo sapiens, UniProt Q05513).
T6 construct: gene PRKCZ
As to the kind of experiment: biochemical. The note with it: read-out: Activity (% of Control). Details: Upstate KinaseProfiler in vitro kinase activity assay, per cent of DMSO control. As to the method:
as §1

For test [8], the target named is T7, SGK(h) (Homo sapiens, UniProt O00141).
T7 construct: gene SGK1
Put plainly: biochemical. Details: Upstate KinaseProfiler in vitro kinase activity assay, per cent of DMSO control. To be noted: read-out: Activity (% of Control). As for the experimental part: as §1

Test [9] addresses T8, Rsk2(h) (Homo sapiens, UniProt P51812).
T8 construct: gene RPS6KA3
As to the kind of experiment: biochemical. Also noted: Upstate KinaseProfiler in vitro kinase activity assay, per cent of DMSO control. To be noted: read-out: Activity (% of Control). As to the method: as §1

For test [10], the target named is LIMK1(h) (Homo sapiens, UniProt P53667). As to the kind of experiment: biochemical. Details: Upstate KinaseProfiler in vitro kinase activity assay, per cent of DMSO control. The note with it: read-out: Activity (% of Control). As for the experimental part: as §1
The target of test [11] is ALK(h) (Homo sapiens, UniProt Q9UM73). Put plainly: biochemical. Also noted: Upstate KinaseProfiler in vitro kinase activity assay, per cent of DMSO control. To be noted: read-out: Activity (% of Control). As for the experimental part: as §1
In test [12] the target is T9, CHK1(h) (Homo sapiens, UniProt O14757).
T9 construct: gene CHEK1
As to the kind of experiment: biochemical. Details: Upstate KinaseProfiler in vitro kinase activity assay, per cent of DMSO control. To be noted: read-out: Activity (% of Control). As for the experimental part: as §1

In test [13] the target is T10, PKCδ(h) (Homo sapiens, UniProt Q05655).
T10 construct: gene PRKCD
As to the kind of experiment: biochemical. Details: Upstate KinaseProfiler in vitro kinase activity assay, per cent of DMSO control. The note with it: read-out: Activity (% of Control). As for the experimental part:
as §1

Test [14] has as its target T11, PI 3-Kinaseβ(h) (Homo sapiens, UniProt P42338).
T11 construct: gene PIK3CB
As to the kind of experiment: biochemical. Details: Upstate KinaseProfiler in vitro kinase activity assay, per cent of DMSO control. The note with it: read-out: Activity (% of Control). As for the experimental part: as §1

The target of test [15] is T12, JNK3(h) (Homo sapiens, UniProt P53779).
T12 construct: gene MAPK10
Put plainly: biochemical. Also noted: Upstate KinaseProfiler in vitro kinase activity assay, per cent of DMSO control. The note with it: read-out: Activity (% of Control). As to the method: as §1

Test [16] deals with T13, Aurora-A(h) (Homo sapiens, UniProt O14965).
T13 construct: gene AURKA
Put plainly: biochemical. Details: Upstate KinaseProfiler in vitro kinase activity assay, per cent of DMSO control. The note with it: read-out: Activity (% of Control). As for the experimental part:
as §1

For test [17], the target named is EphB2(h) (Homo sapiens, UniProt P29323). Put plainly: biochemical. Also noted: Upstate KinaseProfiler in vitro kinase activity assay, per cent of DMSO control. The note with it: read-out: Activity (% of Control). As for the experimental part:
as §1

The target of test [18] is T14, CDK5/p35(h) (Homo sapiens, UniProt Q00535).
T14 construct: p35
As to the kind of experiment: biochemical. Also noted: Upstate KinaseProfiler in vitro kinase activity assay, per cent of DMSO control. The note with it: read-out: Activity (% of Control). As to the method:
as §1

The structures appear in SMILES notation.

T5 sequence (O14920 whole entry): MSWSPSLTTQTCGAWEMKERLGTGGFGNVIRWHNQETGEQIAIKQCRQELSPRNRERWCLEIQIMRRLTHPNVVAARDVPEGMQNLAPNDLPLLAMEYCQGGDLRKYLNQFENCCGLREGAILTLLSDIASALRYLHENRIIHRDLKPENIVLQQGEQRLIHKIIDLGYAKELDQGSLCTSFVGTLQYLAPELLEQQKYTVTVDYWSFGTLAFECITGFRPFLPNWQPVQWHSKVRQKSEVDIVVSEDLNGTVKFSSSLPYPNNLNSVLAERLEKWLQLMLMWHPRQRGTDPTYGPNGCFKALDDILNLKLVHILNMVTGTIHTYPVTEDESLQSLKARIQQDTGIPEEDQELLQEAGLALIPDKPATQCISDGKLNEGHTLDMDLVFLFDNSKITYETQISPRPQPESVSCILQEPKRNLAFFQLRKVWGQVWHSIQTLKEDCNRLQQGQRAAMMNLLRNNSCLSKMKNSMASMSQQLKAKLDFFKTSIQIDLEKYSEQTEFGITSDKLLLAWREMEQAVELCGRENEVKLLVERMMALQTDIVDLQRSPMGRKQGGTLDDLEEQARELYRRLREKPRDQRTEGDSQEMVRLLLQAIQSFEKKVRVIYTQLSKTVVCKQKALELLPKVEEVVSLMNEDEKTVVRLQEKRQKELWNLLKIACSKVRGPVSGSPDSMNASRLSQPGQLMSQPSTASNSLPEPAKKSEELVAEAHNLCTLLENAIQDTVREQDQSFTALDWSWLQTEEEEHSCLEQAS
T3 sequence (P16234 whole entry): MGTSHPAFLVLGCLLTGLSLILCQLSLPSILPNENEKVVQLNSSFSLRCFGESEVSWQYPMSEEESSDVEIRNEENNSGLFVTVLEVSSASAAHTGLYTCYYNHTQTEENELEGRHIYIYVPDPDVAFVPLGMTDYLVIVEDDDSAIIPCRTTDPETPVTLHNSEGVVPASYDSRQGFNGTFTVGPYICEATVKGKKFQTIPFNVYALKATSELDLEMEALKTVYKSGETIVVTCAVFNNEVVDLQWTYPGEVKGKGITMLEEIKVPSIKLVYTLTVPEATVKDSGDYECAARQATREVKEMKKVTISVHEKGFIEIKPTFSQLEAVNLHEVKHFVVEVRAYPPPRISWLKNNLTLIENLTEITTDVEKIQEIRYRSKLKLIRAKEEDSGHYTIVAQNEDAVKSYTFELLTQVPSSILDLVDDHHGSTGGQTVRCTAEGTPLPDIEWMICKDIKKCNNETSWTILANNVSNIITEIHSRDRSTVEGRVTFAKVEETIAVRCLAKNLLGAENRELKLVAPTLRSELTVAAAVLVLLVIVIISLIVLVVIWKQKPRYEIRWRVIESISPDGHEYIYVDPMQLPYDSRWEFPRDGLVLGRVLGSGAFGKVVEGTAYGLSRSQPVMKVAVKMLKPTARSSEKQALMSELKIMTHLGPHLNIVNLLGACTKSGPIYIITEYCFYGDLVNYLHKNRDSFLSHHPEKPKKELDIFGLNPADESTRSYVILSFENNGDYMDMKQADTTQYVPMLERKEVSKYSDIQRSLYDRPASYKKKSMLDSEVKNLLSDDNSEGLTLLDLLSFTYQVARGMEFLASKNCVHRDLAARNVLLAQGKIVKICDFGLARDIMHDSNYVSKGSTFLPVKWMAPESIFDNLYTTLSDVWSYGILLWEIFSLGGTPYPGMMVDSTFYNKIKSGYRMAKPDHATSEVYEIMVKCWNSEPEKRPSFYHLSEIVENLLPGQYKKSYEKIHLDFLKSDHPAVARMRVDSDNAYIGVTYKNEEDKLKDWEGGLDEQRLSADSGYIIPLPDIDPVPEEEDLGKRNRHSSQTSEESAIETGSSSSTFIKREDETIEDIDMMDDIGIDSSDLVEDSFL
Chain of EphB2(h) (P29323 whole entry): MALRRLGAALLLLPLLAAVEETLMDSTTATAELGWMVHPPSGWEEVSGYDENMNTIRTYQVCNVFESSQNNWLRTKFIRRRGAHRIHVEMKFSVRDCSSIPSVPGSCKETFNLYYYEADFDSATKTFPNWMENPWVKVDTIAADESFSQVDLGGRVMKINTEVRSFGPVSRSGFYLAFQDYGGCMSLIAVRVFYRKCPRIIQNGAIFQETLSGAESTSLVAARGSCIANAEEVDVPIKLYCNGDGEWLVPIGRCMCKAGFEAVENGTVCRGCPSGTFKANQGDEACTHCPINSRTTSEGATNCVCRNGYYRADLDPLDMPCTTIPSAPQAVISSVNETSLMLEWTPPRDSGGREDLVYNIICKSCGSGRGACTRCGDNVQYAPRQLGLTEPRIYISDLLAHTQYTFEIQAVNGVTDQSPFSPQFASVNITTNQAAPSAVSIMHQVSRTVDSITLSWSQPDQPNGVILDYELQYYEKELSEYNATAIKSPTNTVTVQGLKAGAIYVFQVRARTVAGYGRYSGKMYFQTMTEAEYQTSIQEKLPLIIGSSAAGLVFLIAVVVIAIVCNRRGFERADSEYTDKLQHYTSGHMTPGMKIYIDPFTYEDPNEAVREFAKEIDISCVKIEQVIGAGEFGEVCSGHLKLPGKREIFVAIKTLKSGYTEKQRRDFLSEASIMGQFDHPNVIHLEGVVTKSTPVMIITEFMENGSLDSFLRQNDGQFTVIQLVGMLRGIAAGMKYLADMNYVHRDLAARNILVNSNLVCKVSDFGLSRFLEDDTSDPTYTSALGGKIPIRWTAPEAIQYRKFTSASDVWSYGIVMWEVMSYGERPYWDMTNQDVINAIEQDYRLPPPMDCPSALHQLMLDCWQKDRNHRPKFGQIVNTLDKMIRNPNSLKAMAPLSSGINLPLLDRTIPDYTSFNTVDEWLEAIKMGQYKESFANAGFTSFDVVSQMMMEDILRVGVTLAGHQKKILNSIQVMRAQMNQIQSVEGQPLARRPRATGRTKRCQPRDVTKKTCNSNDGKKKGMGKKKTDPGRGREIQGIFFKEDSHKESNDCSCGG
T2 sequence (Q00535 whole entry): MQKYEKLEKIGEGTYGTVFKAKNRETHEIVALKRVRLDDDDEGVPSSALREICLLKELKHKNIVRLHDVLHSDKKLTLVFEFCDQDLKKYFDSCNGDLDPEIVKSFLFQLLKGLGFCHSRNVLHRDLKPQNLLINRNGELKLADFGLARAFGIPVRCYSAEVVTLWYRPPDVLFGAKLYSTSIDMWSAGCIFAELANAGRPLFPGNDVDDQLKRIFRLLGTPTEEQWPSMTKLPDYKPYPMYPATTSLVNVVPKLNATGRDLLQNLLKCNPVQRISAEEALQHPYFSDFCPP
T2 sequence (Q15078 whole entry partner): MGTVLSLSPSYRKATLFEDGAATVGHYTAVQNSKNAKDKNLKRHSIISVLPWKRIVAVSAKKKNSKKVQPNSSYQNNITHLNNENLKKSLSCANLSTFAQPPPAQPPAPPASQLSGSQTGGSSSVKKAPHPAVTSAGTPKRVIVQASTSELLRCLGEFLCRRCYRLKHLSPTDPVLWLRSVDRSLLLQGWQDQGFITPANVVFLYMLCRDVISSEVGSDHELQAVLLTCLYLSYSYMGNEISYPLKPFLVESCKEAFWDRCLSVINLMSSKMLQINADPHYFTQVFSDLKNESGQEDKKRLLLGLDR
T14 sequence (Q00535 whole entry): as the sequence (Q00535 whole entry) above
T14 sequence (Q15078 whole entry partner): as the sequence (Q15078 whole entry partner) above
T9 sequence (O14757 whole entry): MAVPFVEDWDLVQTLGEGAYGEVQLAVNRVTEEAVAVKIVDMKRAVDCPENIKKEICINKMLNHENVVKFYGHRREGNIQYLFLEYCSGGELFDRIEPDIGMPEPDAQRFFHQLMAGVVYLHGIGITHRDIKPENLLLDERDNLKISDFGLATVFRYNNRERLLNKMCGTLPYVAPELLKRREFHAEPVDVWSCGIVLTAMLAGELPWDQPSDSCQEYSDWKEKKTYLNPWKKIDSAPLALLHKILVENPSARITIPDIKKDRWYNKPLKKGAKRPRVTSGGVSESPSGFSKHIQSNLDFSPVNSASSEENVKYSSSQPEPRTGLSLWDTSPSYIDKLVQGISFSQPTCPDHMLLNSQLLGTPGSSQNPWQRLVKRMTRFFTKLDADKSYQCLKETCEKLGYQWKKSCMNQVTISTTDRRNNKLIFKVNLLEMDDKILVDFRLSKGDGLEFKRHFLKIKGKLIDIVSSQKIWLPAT
Chain of LIMK1(h) (P53667 whole entry): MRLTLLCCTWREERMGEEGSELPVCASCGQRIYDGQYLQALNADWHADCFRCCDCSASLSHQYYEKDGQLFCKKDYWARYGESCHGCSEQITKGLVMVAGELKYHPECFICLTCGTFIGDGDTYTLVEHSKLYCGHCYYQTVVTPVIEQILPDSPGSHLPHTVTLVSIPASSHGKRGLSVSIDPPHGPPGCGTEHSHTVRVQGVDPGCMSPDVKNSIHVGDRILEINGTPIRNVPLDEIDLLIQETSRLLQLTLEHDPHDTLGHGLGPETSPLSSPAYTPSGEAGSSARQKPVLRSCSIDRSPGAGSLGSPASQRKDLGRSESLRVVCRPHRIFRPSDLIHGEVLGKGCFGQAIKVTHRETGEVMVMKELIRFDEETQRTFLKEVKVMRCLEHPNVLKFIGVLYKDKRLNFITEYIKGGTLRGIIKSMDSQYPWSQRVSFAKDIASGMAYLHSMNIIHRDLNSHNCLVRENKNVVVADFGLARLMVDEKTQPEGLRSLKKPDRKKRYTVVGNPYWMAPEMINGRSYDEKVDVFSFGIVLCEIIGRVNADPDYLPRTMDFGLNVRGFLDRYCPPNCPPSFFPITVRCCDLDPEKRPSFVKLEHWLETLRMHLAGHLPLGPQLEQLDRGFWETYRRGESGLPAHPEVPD

For the compound `Oc1ccc(/C=C/c2cc(O)cc(O)c2)cc1` [Res, resveratrol], the IC50 in test [1] is roughly 25 µM. Further, the remaining activity at 20 µM in [2] was 64 ± 4%; in test [3], 30 ± 2%; in [4], 114 ± 2%; in test [5], 100%; in test [6], 116 ± 2%; in test [7], 89%. The remaining activity at 20 µM in [8] stood at 86 ± 13%; in test [9], 32%; in test [10], 84 ± 4%; in test [11], 39%; in test [12], 95 ± 2%; in test [13] it was 92 ± 1%. Also, the remaining activity at 20 µM is 107 ± 1% in [14]; 98 ± 3% in test [15]; 65 ± 1% in [16]; 113 ± 1% in test [17]; 77 ± 2% in test [18].
